According to patent US20250179059A1 (The Regents of the University of California, priority 2021, published 2025):
Like-named read-outs stand apart in the source and are kept apart here.

How the values were obtained:
[1] = biological target: T1, human BRD4 bromodomain II (Homo sapiens, UniProt O60885); assay: Bromodomain binding assay (AlphaScreen), BRD4 BDII
T1 construct: human BRD4 bromodomain II [based on Genbank NM_058243, residues 349-460]; host or cells: E. coli
Procedure, shortened: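 Tagged BRD4 BDI or BDII constructs, expressed in E. coli, competed against a K5/K8/K12/K16-acetylated biotin-H4 peptide. Proximity signal between bead pairs after room-temperature incubations gave concentration-response curves, from which IC50 was derived.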

[2] = test system: human SKM-1 acute myeloid leukemia cells; assay: SKM-1 antiproliferation cell-based assay (ATPlite); conditions: Homo sapiens
Procedure, shortened: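 Log-phase cells in RPMI 1640/15% FBS were seeded at 34722 cells/mL and exposed for 4 days to nine-concentration DMSO serial dilutions in triplicate. Viability was read as ATP luminescence (ATPlite 1step), and IC50 values came from variable-slope non-linear regression.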

[3] = AlphaScreen assay, Table C2, read-out: BRD4 BDII IC50
[4] = SKM-1, 96 h, SKM-1 antiproliferation assay, 4 days, Table C2
[5] = BRD4 BDII AlphaScreen assay, read-out: BRD4 BD2 IC50
[6] = SKM-1, SKM-1 antiproliferation assay

SMILES | IC50 [1, 3] [nM] | GI50 [2, 4] [nM] | IC50 [1, 5] [nM] | GI50 [2, 6] [nM]
Cc1cc(-c2ccc(-n3ccn(C)c3=O)c(Cl)c2)c(O)c(-c2cc(N3CCNCC3)c3cc[nH]c3c2)c1 [Example 557, 1-(3-chloro-2′-hydroxy-5′-methyl-3′-(4-(piperazin-1-yl)-1H-indol-6-yl)-[1,1′-biphenyl]-4-yl)-3-methyl-1H-imidazol-2(3H)-one] | 1 to 10 | 0.3 to 30 | – | –
CN(C)[C@H]1CCCN(c2cc(-c3cc(F)cc(-c4ccc(-n5ccn(C)c5=O)c(Cl)c4)c3O)ccn2)C1 [Example 457, (S)-1-(3-chloro-3′-(2-(3-(dimethylamino)piperidin-1-yl)pyridin-4-yl)-5′-fluoro-2′-hydroxy-[1,1′-biphenyl]-4-yl)-3-methyl-1H-imidazol-2(3H)-one] | 1 to 10 | 0.3 to 30 | – | –
CN1CCN(c2ccc(-c3cc(C4CC4)cc(-c4ccnc(N5CCNCC5)c4)c3O)cc2Cl)C1=O [Example 316, 1-(3-chloro-5′-cyclopropyl-2′-hydroxy-3′-(2-(piperazin-1-yl)pyridin-4-yl)-[1,1′-biphenyl]-4-yl)-3-methylimidazolidin-2-one] | 1 to 10 | 300 to 3000 | – | –
Cn1ccn(-c2ccc(-c3cc(F)cc(-c4ccnc(N5CCC(C)(C(N)=O)C5)c4)c3O)cc2Cl)c1=O (stereo not shown) [Example 773, 1-(4-(3′-chloro-5-fluoro-2-hydroxy-4′-(3-methyl-2-oxo-2,3-dihydro-1H-imidazol-1-yl)-[1,1′-biphenyl]-3-yl)pyridin-2-yl)-3-methylpyrrolidine-3-carboxamide] | 1 to 10 | 30 to 300 | – | –
CN1CCC2(CC(=O)N(c3cc(-c4cc(F)cc(-c5ccc(-n6ccn(C)c6=O)c(Cl)c5)c4O)ccn3)C2)C1 (stereo not shown) [Example 712, 2-(4-(3′-chloro-5-fluoro-2-hydroxy-4′-(3-methyl-2-oxo-2,3-dihydro-1H-imidazol-1-yl)-[1,1′-biphenyl]-3-yl)pyridin-2-yl)-7-methyl-2,7-diazaspiro[4.4]nonan-3-one] | 0.01 to 1 | 30 to 300 | – | –
CC(C)C(=O)Nc1cc(-c2cc(F)cc(-c3ccc(-n4ccn(C)c4=O)c(Cl)c3)c2O)cc(N2CC[C@H](N)C2)n1 [Example 524, (S)-N-(6-(3-aminopyrrolidin-1-yl)-4-(3′-chloro-5-fluoro-2-hydroxy-4′-(3-methyl-2-oxo-2,3-dihydro-1H-imidazol-1-yl)-[1,1′-biphenyl]-3-yl)pyridin-2-yl)isobutyramide] | 1 to 10 | 0.3 to 30 | – | –
O=C1CCCN1c1ccc(-c2cc(F)cc(-c3ccnc(N4CC5(CNC5)C4)c3)c2O)cc1Cl [Example 324, 1-(3′-(2-(2,6-diazaspiro[3.3]heptan-2-yl)pyridin-4-yl)-3-chloro-5′-fluoro-2′-hydroxy-[1,1′-biphenyl]-4-yl)pyrrolidin-2-one] | 10 to 100 | 300 to 3000 | – | –
CN1CCN(c2ccc(-c3cc(F)cc(-c4ccnc(N5CCNCC5=O)c4)c3O)cc2Cl)C1=O [Example 449, 1-(4-(3′-chloro-5-fluoro-2-hydroxy-4′-(3-methyl-2-oxoimidazolidin-1-yl)-[1,1′-biphenyl]-3-yl)pyridin-2-yl)piperazin-2-one] | 1 to 10 | 300 to 3000 | – | –
CC(=O)Nc1ccc(-c2cc(F)cc(-c3cccc(N4CCN(C(C)(C)C)CC4)c3)c2O)cn1 [Example 908, N-(5-(3′-(4-(tert-butyl)piperazin-1-yl)-5-fluoro-2-hydroxy-[1,1′-biphenyl]-3-yl)pyridin-2-yl)acetamide] | – | – | > 100 | > 3000
O=C1CCCN1c1ccc(-c2cccc(-c3ccnc(N4CC5(CNC5)C4)c3)c2O)cc1Cl [Example 271, 1-(3′-(2-(2,6-diazaspiro[3.3]heptan-2-yl)pyridin-4-yl)-3-chloro-2′-hydroxy-[1,1′-biphenyl]-4-yl)pyrrolidin-2-one] | 10 to 100 | 300 to 3000 | – | –
CN1CCN(c2ccc(-c3cc(F)cc(-c4cc(N5CCNCC5)c(=O)n(C)c4)c3O)cc2Cl)C1=O [Example 372, 5-(3′-chloro-5-fluoro-2-hydroxy-4′-(3-methyl-2-oxoimidazolidin-1-yl)-[1,1′-biphenyl]-3-yl)-1-methyl-3-(piperazin-1-yl)pyridin-2(1H)-one] | 1 to 10 | 30 to 300 | – | –
Cn1ccn(-c2ccc(-c3cc(F)cc(-c4ccc(F)c(N5CC[C@@](C)(O)C5)c4)c3O)cc2Cl)c1=O [Example 775, (R)-1-(3-chloro-4″,5′-difluoro-2′-hydroxy-3″-(3-hydroxy-3-methylpyrrolidin-1-yl)-[1,1′:3′,1″-terphenyl]-4-yl)-3-methyl-1H-imidazol-2(3H)-one] | 1 to 10 | 30 to 300 | – | –
CN1CCCC12CCN(c1cncc(-c3cc(F)cc(-c4ccc(-n5ccn(C)c5=O)c(Cl)c4)c3O)c1)C2 (stereo not shown) [Example 700, 1-(3-chloro-5′-fluoro-2′-hydroxy-3′-(5-(1-methyl-1,7-diazaspiro[4.4]nonan-7-yl)pyridin-3-yl)-[1,1′-biphenyl]-4-yl)-3-methyl-1H-imidazol-2(3H)-one] | 0.01 to 1 | 0.3 to 30 | – | –
CC(=O)Nc1ccc(-c2cccc(-c3cc(N4CCNCC4)nc4[nH]ccc34)c2O)cc1F [Example 286, N-(3-fluoro-2′-hydroxy-3′-(6-(piperazin-1-yl)-1H-pyrrolo[2,3-b]pyridin-4-yl)-[1,1′-biphenyl]-4-yl)acetamide] | 10 to 100 | 300 to 3000 | – | –
CN1C2CCC1CN(c1cncc(-c3cc(F)cc(-c4ccc(-n5ccn(C)c5=O)c(Cl)c4)c3O)c1)C2 [Example 514, 1-(3-chloro-5′-fluoro-2′-hydroxy-3′-(5-(8-methyl-3,8-diazabicyclo[3.2.1]octan-3-yl)pyridin-3-yl)-[1,1′-biphenyl]-4-yl)-3-methyl-1H-imidazol-2(3H)-one] | 1 to 10 | 0.3 to 30 | – | –
Cc1cc(-c2ccnc(N3CC[C@H](N)C3)c2)c(O)c(-c2ccc(N3CCN(C)C3=O)c(Cl)c2)c1 [Example 362, (S)-1-(3′-(2-(3-aminopyrrolidin-1-yl)pyridin-4-yl)-3-chloro-2′-hydroxy-5′-methyl-[1,1′-biphenyl]-4-yl)-3-methylimidazolidin-2-one] | 1 to 10 | 30 to 300 | – | –
COc1ncc(-c2cc(F)cc(-c3ccc(-n4ccn(C)c4=O)c(Cl)c3)c2O)cc1N1CCN(C(C)C)CC1 [Example 738, 1-(3-chloro-5′-fluoro-2′-hydroxy-3′-(5-(4-isopropylpiperazin-1-yl)-6-methoxypyridin-3-yl)-[1,1′-biphenyl]-4-yl)-3-methyl-1H-imidazol-2(3H)-one] | 0.01 to 1 | 0.3 to 30 | – | –
Cn1ccn(-c2ccc(-c3cc(Cl)cc(-c4ccnc(N5CC[C@H](N)C5)c4)c3O)cc2Cl)c1=O [Example 539, (S)-1-(3′-(2-(3-aminopyrrolidin-1-yl)pyridin-4-yl)-3,5′-dichloro-2′-hydroxy-[1,1′-biphenyl]-4-yl)-3-methyl-1H-imidazol-2(3H)-one] | 1 to 10 | 0.3 to 30 | – | –
Cn1ccn(-c2ccc(-c3cc(F)cc(-c4ccnc(N5CCC(O)(CO)C5)c4)c3O)cc2Cl)c1=O (stereo not shown) [Example 731, 1-(3-chloro-5′-fluoro-2′-hydroxy-3′-(2-(3-hydroxy-3-(hydroxymethyl)pyrrolidin-1-yl)pyridin-4-yl)-[1,1′-biphenyl]-4-yl)-3-methyl-1H-imidazol-2(3H)-one] | 0.01 to 1 | 0.3 to 30 | – | –
Cn1ccn(-c2ccc(-c3cc(F)cc(-c4ccnc(N5CCC(O)(C(F)(F)F)C5)c4)c3O)cc2Cl)c1=O (stereo not shown) [Example 784, 1-(3-chloro-5′-fluoro-2′-hydroxy-3′-(2-(3-hydroxy-3-(trifluoromethyl)pyrrolidin-1-yl)pyridin-4-yl)-[1,1′-biphenyl]-4-yl)-3-methyl-1H-imidazol-2(3H)-one] | 1 to 10 | 30 to 300 | – | –
Cn1ccn(-c2ccc(-c3cc(F)cc(-c4ccnc(N5CCC(C)(NCC(F)(F)F)C5)c4)c3O)cc2Cl)c1=O (stereo not shown) [Example 895] | – | – | 1 to 10 | 30 to 300
CSc1ncc(-c2cc(F)cc(-c3ccc(-n4ccn(C)c4=O)c(Cl)c3)c2O)cc1N1CCN(C(C)(C)C)CC1 [Example 821, 1-(3′-(5-(4-(tert-butyl)piperazin-1-yl)-6-(methylthio)pyridin-3-yl)-3-chloro-5′-fluoro-2′-hydroxy-[1,1′-biphenyl]-4-yl)-3-methyl-1H-imidazol-2(3H)-one] | 1 to 10 | 0.3 to 30 | – | –
Cn1ccn(-c2ccc(-c3cc(F)cc(-c4ccnc(N5CC[C@H](C(N)=O)C5)c4)c3O)cc2Cl)c1=O [Example 760] | 0.01 to 1 | 30 to 300 | – | –
O=c1n(-c2ccc(-c3cc(F)cc(-c4ccnc(N5CCNCC5)c4)c3O)cc2Cl)ccn1C(F)F [Example 468, 1-(3-chloro-5′-fluoro-2′-hydroxy-3′-(2-(piperazin-1-yl)pyridin-4-yl)-[1,1′-biphenyl]-4-yl)-3-(difluoromethyl)-1H-imidazol-2(3H)-one] | 1 to 10 | 300 to 3000 | – | –
Cc1ncc(-c2cc(F)cc(-c3ccc(-n4ccn(C)c4=O)c(Cl)c3)c2O)cc1N1CC[C@@]2(CCCN2C(C)C)C1 [Example 955, (S)-1-(3-chloro-5′-fluoro-2′-hydroxy-3′-(5-(1-isopropyl-1,7-diazaspiro[4.4]nonan-7-yl)-6-methylpyridin-3-yl)-[1,1′-biphenyl]-4-yl)-3-methyl-1,3-dihydro-2H-imidazol-2-one] | – | – | 1 to 10 | 0.3 to 30
C[C@@H]1CN(c2cc(-c3cc(F)cc(-c4ccc(-n5ccn(C)c5=O)c(Cl)c4)c3O)cc3c2ncn3C)CCN1 [Example 576] | 0.01 to 1 | 0.3 to 30 | – | –
